The source made the active and inactive calls.
Columns and labels:
HEK293 [1] = experiment: cells; format: functional, cell-based; settings: Homo sapiens
Aminopeptidase N = biological target: T1, Aminopeptidase N (Plasmodium falciparum FcB1/Columbia, UniProt O96935); experiment: P. falciparum M1AAP inhibitors, biochemical, fluorogenic H-Leu-NHMec substrate, 1536-well (AID 1445); design: species or system Plasmodium falciparum 3D7, 3D7
T1 sequence (O96935 whole entry): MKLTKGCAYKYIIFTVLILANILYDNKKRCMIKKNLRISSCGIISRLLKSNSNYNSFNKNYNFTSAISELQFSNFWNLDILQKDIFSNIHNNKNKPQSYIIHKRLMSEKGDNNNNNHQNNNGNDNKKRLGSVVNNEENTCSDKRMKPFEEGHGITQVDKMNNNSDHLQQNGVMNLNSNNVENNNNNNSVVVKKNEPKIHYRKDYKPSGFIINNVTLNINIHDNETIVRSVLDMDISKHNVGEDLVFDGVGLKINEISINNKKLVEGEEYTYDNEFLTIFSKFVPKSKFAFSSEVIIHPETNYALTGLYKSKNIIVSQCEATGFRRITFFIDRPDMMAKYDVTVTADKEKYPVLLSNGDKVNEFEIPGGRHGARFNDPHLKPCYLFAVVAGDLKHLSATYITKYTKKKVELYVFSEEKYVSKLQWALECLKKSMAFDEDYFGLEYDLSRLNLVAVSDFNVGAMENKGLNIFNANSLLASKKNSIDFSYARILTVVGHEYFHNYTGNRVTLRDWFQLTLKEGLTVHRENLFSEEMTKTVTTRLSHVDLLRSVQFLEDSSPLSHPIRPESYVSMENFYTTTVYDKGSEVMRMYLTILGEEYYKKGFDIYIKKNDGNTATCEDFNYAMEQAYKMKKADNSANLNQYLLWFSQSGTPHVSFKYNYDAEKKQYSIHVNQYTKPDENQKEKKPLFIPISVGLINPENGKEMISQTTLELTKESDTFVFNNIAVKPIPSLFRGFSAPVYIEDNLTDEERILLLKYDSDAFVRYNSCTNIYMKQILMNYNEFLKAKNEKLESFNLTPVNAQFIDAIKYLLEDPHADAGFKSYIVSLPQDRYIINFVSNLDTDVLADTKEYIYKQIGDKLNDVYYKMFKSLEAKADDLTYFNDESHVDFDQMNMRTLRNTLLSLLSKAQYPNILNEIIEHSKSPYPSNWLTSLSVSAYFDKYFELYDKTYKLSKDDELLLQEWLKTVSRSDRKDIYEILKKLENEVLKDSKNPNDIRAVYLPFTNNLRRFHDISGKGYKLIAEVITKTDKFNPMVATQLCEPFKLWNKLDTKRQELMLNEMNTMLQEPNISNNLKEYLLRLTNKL

HEK293 [2] = experiment: NOD2 signaling inhibitors in MDP-stimulated cells, cell-based, uHTS, luminescence (AID 2001); format: functional; settings: Homo sapiens
[3] = biological target: T2, Calpain-2 catalytic subunit (Sus scrofa, UniProt P43367); experiment: pig calpain II inhibitor potency, dose response, biochemical, fluorogenic peptide substrate (AID 1420); format: functional
T2 sequence (P43367 whole entry): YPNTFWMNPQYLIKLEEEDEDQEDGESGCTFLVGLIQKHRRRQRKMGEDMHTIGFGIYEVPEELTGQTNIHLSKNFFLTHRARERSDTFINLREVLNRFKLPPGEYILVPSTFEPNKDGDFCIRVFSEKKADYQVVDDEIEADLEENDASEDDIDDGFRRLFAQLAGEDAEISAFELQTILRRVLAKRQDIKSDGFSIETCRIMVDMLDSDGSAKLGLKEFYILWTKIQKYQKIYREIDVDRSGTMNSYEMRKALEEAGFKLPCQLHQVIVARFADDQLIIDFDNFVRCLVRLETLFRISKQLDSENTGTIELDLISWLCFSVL

Cytochrome P450 2D6 = Cytochrome P450 2D6 (Homo sapiens, UniProt P10635);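 further: CYP2D6 member of a cytochrome P450 panel assay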
Chain of Cytochrome P450 2D6 (P10635 whole entry): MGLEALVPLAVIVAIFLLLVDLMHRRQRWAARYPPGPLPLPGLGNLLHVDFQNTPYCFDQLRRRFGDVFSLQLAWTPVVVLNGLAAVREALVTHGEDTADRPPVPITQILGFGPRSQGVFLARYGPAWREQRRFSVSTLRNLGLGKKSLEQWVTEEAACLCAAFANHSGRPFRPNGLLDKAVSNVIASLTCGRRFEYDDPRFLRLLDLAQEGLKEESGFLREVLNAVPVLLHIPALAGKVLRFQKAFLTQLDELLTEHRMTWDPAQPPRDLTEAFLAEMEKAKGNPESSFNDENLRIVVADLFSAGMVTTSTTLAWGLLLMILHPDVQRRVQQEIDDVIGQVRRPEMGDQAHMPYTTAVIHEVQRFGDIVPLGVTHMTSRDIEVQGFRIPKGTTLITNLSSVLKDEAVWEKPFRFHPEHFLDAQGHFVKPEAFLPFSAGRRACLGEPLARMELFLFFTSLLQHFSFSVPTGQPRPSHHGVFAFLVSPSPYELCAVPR

HEK293 [4] = experiment: cells; format: functional, cell-based; settings: Homo sapiens; remark: listed apart in the source
Genome polyprotein = Genome polyprotein (dengue virus type 2, UniProt P29990); experiment: Dengue-2 NS5 methyltransferase inhibitors, primary screen, biochemical, confirmation dose response (AID 588689); format: functional
Chain of Genome polyprotein (P29990 2492-3391 limits assumed): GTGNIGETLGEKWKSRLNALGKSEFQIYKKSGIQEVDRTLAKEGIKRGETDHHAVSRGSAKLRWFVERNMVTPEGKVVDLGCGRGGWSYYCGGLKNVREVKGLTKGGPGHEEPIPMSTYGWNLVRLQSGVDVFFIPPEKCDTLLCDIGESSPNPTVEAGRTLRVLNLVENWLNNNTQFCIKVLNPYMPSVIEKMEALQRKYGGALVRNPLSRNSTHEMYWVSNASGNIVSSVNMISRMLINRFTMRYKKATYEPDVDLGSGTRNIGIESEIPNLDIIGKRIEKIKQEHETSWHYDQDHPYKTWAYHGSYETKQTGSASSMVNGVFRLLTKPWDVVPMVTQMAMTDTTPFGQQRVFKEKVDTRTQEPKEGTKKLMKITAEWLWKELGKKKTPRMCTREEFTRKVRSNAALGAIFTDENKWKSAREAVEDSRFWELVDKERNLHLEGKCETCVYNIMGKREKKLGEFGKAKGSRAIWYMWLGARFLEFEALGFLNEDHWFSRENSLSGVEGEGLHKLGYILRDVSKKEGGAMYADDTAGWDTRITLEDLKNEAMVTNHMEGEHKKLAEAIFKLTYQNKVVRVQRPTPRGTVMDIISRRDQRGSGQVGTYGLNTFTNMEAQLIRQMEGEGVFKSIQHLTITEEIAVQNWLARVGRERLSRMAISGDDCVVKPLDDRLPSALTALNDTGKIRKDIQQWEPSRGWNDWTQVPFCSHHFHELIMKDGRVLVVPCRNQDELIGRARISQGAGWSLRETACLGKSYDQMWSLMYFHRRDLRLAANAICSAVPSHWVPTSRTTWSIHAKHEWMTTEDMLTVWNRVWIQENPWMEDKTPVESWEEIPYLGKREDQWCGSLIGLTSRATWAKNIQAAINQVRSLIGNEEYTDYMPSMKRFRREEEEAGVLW

Cytochrome P450 1A2 = biological target: T3, Cytochrome P450 1A2 (Homo sapiens, UniProt P05177);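 further: PubChem cytochrome P450 panel assay, CYP1A2 panel member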
T3 sequence (P05177 whole entry): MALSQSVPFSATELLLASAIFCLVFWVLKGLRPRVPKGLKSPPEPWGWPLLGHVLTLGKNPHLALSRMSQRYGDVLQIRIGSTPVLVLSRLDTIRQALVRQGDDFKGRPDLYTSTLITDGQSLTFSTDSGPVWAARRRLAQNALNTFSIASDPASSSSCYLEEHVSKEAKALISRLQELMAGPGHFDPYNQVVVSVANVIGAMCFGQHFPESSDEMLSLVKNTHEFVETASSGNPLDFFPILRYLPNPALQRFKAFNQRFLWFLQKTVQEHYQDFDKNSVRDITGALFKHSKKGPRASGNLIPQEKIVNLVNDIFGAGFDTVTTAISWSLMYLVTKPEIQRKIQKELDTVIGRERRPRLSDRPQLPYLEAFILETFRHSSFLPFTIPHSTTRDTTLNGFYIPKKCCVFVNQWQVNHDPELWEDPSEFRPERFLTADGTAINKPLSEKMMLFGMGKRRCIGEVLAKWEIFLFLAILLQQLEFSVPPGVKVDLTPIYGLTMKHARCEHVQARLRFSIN

[5] = cytotoxicity toward NIH3T3 fibroblasts, dose response, counter-screen, cell-based, ATP luminescence, mouse fibroblasts (AID 2010); format: functional;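 further: cells exposed to compound for about 90 hours before reading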
[6] = inhibitors of intracellular T. cruzi replication, confirmation, NIH3T3 host cells, beta-gal luminescence (AID 2044); format: functional, cell-based;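 further: intracellular parasites grown in NIH/3T3 mouse fibroblasts as host cells; luminescent beta-galactosidase reporter signal from transgenic T. cruzi replicating inside host cells; inhibitors lower the luminescence signal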
[7] = P. falciparum late gametocyte killing, dose response, luminescence (AID 1117278); format: functional, cell-based;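 further: gametocytes exposed to compound for 24 hours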
[8] = Jurkat T cell cytotoxicity, dose response, cytotoxicity control for P. falciparum gametocyte viability project, luminescence (AID 1117277); format: functional, cell-based;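 further: potency reflects loss of cellular ATP meaning fewer viable cells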
[9] = biological target: T4, Mannose-6-phosphate isomerase (Homo sapiens, UniProt P34949); experiment: human PMI inhibitors, high substrate, primary screen, biochemical, fluorescence intensity, high mannose 6-phosphate (AID 1220)
T4 sequence (P34949 whole entry): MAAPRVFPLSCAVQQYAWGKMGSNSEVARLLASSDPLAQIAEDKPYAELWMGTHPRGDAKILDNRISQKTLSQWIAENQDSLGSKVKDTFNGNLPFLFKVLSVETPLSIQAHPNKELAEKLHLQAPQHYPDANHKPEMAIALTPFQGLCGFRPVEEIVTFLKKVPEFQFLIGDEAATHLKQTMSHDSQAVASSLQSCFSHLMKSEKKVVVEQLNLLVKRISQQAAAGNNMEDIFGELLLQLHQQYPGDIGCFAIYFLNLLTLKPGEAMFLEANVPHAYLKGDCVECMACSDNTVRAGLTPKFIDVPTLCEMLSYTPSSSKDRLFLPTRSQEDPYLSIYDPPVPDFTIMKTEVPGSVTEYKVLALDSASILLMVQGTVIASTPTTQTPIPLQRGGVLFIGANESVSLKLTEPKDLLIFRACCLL

[10] = LGR2 antagonists, dose response, cell-based, HEK293, CRE-luciferase reporter, cherry pick, set 2 (AID 743343); format: functional;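 further: transfected cells were stimulated with diluted bursicon conditioned medium after compound addition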
[11] = test system: Streptococcus sp. 'group A'; experiment: growth inhibition of control SK(-) GAS strain, dose response, counter-screen for streptokinase expression inhibitor project, luminescence, kanamycin, BacTiterGlo, confirmation (AID 1900); format: functional, organism-based
[12] = biological target: Induced myeloid leukemia cell differentiation protein Mcl-1 (Homo sapiens, UniProt Q07820); format: functional
Chain of Induced myeloid leukemia cell differentiation protein Mcl-1 (Q07820 whole entry): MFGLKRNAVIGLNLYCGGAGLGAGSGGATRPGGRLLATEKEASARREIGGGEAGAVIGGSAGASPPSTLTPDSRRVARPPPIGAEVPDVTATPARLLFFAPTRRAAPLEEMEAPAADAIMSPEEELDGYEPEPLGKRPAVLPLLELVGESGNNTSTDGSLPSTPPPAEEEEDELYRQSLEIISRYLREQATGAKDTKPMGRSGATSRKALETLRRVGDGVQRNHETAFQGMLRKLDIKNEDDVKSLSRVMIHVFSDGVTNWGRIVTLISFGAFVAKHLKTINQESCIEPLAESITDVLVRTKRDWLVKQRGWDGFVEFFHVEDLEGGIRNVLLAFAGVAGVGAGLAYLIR

Streptococcus = experiment: Group A Streptococcus viability loss, dose response, counter-screen for streptokinase expression inhibitor project, luminescence, BacTiterGlo (AID 1915); format: functional, organism-based;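 further: potency for reduction of bacterial viability or growth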
[13] = biological target: T5, Microphthalmia-associated transcription factor (Homo sapiens, UniProt O75030); experiment: TRPM1 promoter luciferase signal decrease, dose response, MITF inhibitor project, cell-based, SK-MEL-5, cherry-picked, set 3 (AID 493073); format: functional
T5 sequence (O75030 whole entry): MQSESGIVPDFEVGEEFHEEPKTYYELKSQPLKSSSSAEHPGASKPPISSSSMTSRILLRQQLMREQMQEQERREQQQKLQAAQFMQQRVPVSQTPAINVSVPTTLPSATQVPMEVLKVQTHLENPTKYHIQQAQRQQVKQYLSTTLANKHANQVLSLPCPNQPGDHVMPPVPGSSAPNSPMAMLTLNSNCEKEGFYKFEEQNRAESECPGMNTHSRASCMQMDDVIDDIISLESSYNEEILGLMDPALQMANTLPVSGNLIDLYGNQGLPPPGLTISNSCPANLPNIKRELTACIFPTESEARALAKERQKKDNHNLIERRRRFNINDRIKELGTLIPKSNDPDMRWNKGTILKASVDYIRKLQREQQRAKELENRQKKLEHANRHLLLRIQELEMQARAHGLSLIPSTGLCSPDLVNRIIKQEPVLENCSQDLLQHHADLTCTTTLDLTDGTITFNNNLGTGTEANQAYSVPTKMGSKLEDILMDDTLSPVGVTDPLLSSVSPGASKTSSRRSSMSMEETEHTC

[14] = MC4R antagonists, dose response, counter-screen for LGR2 antagonist project, cell-based, plate reader, cherry pick (AID 743444); format: functional;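 further: transfected HEK 293 cells stimulated with alpha-MSH peptide; potency of inhibitors of the alpha-MSH evoked signal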
Streptokinase A = biological target: T6, Streptokinase A (Streptococcus pyogenes serotype M1, UniProt P10520); experiment: S. pyogenes streptokinase expression inhibitors, potency, dose response, plasminogen activation absorbance, OD405 (AID 1914); format: functional, Streptococcus pyogenes M1 GAS;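 further: secreted streptokinase activity via plasminogen activation per viability signal from cell pellet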
T6 sequence (P10520 whole entry): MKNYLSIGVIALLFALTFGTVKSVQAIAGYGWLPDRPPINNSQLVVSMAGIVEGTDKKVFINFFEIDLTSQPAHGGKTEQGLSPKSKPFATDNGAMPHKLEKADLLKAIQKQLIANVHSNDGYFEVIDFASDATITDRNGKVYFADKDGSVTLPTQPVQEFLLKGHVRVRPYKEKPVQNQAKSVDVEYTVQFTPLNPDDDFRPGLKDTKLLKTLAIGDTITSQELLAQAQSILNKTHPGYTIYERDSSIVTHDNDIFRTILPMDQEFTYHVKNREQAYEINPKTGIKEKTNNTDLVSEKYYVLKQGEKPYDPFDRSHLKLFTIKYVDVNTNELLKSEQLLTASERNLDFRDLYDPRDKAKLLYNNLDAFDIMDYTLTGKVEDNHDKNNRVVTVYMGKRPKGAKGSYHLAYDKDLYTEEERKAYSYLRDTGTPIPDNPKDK

[15] = P. falciparum 3D7-ScDHODH growth inhibitors, dose response, SYBR Green, dry powder samples (AID 1159570); format: functional, cell-based;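 further: parasite growth measured after 72 hours of compound exposure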
[16] = HepG2 cell cytotoxicity, dose response, cytotoxicity control, plate reader, dry powder samples (AID 1159569); format: functional, cell-based;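 further: inhibitor potency with signal falling toward the positive control level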
[17] = P. falciparum ATP4 D1247Y mutant growth inhibitors, dose response, NITD609-resistant line, SYBR Green, dry powder (AID 1159571); format: functional, cell-based;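 further: parasites synchronized at ring stage by sorbitol before testing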
[18] = P. falciparum Dd2 growth inhibitors, dose response, SYBR Green, cherry-picked samples (AID 1159567); format: functional, cell-based
[19] = P. falciparum Dd2 growth inhibitors, dose response, SYBR Green, dry powder samples (AID 1159566); format: functional, cell-based;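 further: potency for growth inhibition with lower SYBR green DNA signal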

O=S(=O)(Nc1nc(-c2sccc2Cl)cs1)c1cc(Cl)ccc1Cl
IC50 (HEK293 [1]): 10.4 µM (active) | IC50 (Aminopeptidase N): 44.1 µM (active) | IC50 (HEK293 [2]): 7.47 µM (active) | IC50 [3]: 5 µM (not active) | AC50 (Cytochrome P450 2D6): 28.2 µM (inconclusive) | IC50 (HEK293 [4]): 17.7 µM (active) | IC50 (Genome polyprotein): 41.6 µM (active) | AC50 (Cytochrome P450 1A2): 28.2 µM (inconclusive)

COc1ccc(CCNCc2ccc(OCc3ccc(Cl)nc3)c(OC)c2)cc1OC
EC50 [5]: > 60 µM (inconclusive) | EC50 (cells): 0.048 µM (active) | EC50 [6]: < 0.1 µM (active)

CCC(C)NS(=O)(=O)c1ccc(NS(C)(=O)=O)cc1 (configuration not stated)
IC50 [7]: > 109 µM (inactive) | IC50 [8]: > 83.3 µM (inactive)

Cc1ccccc1/N=C/c1cccc(O)c1O
IC50 [9]: 11.2 µM (active)

O=C(O)c1ccc(N/N=C/c2ccc(OC(=O)c3cccc(Cl)c3)cc2)cc1
AC50 [10]: 2.03 µM (active) | EC50 [11]: 0.834 µM (active) | IC50 [3]: 3.04 µM (not active) | IC50 [12]: 8.08 µM (active) | EC50 (Streptococcus): 15.5 µM (active) | AC50 [13]: 3.21 µM (active) | AC50 [14]: 1.21 µM (active) | EC50 (Streptokinase A): > 150 µM (not active)

C[C@@H]1CN([C@H](C)CO)C(=O)c2ccccc2-c2ccccc2CO[C@@H]1CN(C)Cc1ccc(C(F)(F)F)cc1
AC50 [15]: 3.53 µM (active) | AC50 [16]: 21.5 µM (active) | AC50 [17]: 1.82 µM (active) | AC50 [18]: 2.16 µM (active) | AC50 [19]: 1.93 µM (active)

COc1ccc(NC(=O)N(C)C[C@H]2Oc3cc(C#CCC(C)C)ccc3S(=O)(=O)N([C@H](C)CO)C[C@H]2C)cc1
AC50 [15]: 1.5 µM (active) | AC50 [16]: 38.3 µM (active) | AC50 [17]: 1.7 µM (active) | AC50 [18]: 1.3 µM (active) | AC50 [19]: 1.21 µM (active)
